Experimental data as given in the supplement of paper PMC10307832.

What was measured:
Assay in all cases: relative viability (nuclei count vs DMSO), 5 days (fraction); higher = more cells survive
Vemurafenib + Phenformin = compound: CCCS(=O)(=O)Nc1ccc(F)c(C(=O)c2c[nH]c3ncc(-c4ccc(Cl)cc4)cc23)c1F [Vemurafenib] + N=C(N)NC(=N)NCCc1ccccc1 [Phenformin] (partner 250 µM)
Outline: (§1)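 Relative viability was taken as the ratio of nuclei in treated wells to nuclei in vehicle wells. Lung cancer cell lines in 1536-well plates received compounds by pin tool one day after seeding, either one drug alone or a fixed anchor-drug dose plus five library-drug doses (not always all listed) in √10 steps. Nuclei were counted on 4× images after 5 days of treatment, and values are medians of duplicate plates.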

Vemurafenib + Olaparib = compound: CCCS(=O)(=O)Nc1ccc(F)c(C(=O)c2c[nH]c3ncc(-c4ccc(Cl)cc4)cc23)c1F [Vemurafenib] + O=C(c1cc(Cc2n[nH]c(=O)c3ccccc23)ccc1F)N1CCN(C(=O)C2CC2)CC1 [Olaparib] (partner 8 µM)
Outline: as §1

OSI-027 + Vorinostat = compound: COc1cccc2cc(-c3nc([C@H]4CC[C@H](C(=O)O)CC4)n4ncnc(N)c34)[nH]c12 [OSI-027] + O=C(CCCCCCC(=O)Nc1ccccc1)NO [Vorinostat] (partner 1 µM)
Outline: as §1

OSI-027 + Foretinib = compound: COc1cccc2cc(-c3nc([C@H]4CC[C@H](C(=O)O)CC4)n4ncnc(N)c34)[nH]c12 [OSI-027] + COc1cc2c(Oc3ccc(NC(=O)C4(C(=O)Nc5ccc(F)cc5)CC4)cc3F)ccnc2cc1OCCCN1CCOCC1 [Foretinib] (partner 0.25 µM)
Outline: as §1

Cell Line | relative viability (Vemurafenib + Phenformin; first compound 0.03162 µM) | relative viability (Vemurafenib + Phenformin; first compound 0.1 µM) | relative viability (Vemurafenib + Phenformin; first compound 0.3162 µM) | relative viability (Vemurafenib + Phenformin; first compound 1 µM) | relative viability (Vemurafenib + Olaparib; first compound 0.03162 µM) | relative viability (Vemurafenib + Olaparib; first compound 0.1 µM) | relative viability (Vemurafenib + Olaparib; first compound 0.3162 µM) | relative viability (Vemurafenib + Olaparib; first compound 1 µM) | relative viability (OSI-027 + Vorinostat; first compound 0.01 µM) | relative viability (OSI-027 + Vorinostat; first compound 0.03162 µM) | relative viability (OSI-027 + Vorinostat; first compound 0.1 µM) | relative viability (OSI-027 + Vorinostat; first compound 0.3162 µM) | relative viability (OSI-027 + Vorinostat; first compound 1 µM) | relative viability (OSI-027 + Foretinib; first compound 0.01 µM) | relative viability (OSI-027 + Foretinib; first compound 0.03162 µM) | relative viability (OSI-027 + Foretinib; first compound 0.1 µM) | relative viability (OSI-027 + Foretinib; first compound 0.3162 µM) | relative viability (OSI-027 + Foretinib; first compound 1 µM)
NCI-H522 | 0.651 | 0.536 | 0.547 | 0.622 | 0.667 | 0.543 | 0.669 | 0.725 | 0.768 | 1.02 | 0.883 | 0.686 | 0.638 |  |  |  |  | 
NCI-H1437 | 0.258 | 0.315 | 0.29 | 0.309 | 0.629 | 0.589 | 0.615 | 0.637 | 0.859 | 0.767 | 0.861 | 0.848 | 0.521 | 1.27 | 1.26 | 1.34 | 1.28 | 0.691
NCI-H1666 | 0.549 | 0.594 | 0.63 | 0.604 | 0.715 | 0.77 | 0.769 | 0.782 | 0.993 | 1.02 | 1.01 | 0.915 | 0.667 | 1 | 0.942 | 0.922 | 0.795 | 0.783
NCI-H647 | 0.439 | 0.404 | 0.446 | 0.376 | 0.605 | 0.469 | 0.513 | 0.634 | 0.656 | 0.468 | 0.385 | 0.363 | 0.36 | 1.39 | 1.14 | 1.28 | 1.01 | 0.575
NCI-H1623 | 0.565 |  | 0.623 | 0.569 |  |  |  |  |  |  |  |  |  | 0.876 | 0.767 | 0.671 | 0.595 | 0.391
NCI-H23 | 0.702 | 0.797 | 0.728 | 0.723 | 0.309 | 0.326 | 0.295 | 0.343 | 0.58 | 0.232 | 0.406 | 0.398 | 0.303 | 0.908 | 0.937 | 0.929 | 0.653 | 0.464
NCI-H1915 | 0.354 | 0.348 | 0.255 | 0.332 | 0.263 | 0.25 | 0.242 | 0.244 | 0.542 | 0.502 | 0.479 | 0.426 | 0.34 | 1.23 | 1.14 | 1.12 | 1.03 | 0.582
HOP-62 | 0.628 | 0.651 | 0.585 | 0.595 | 0.38 | 0.388 | 0.412 | 0.438 | 0.586 | 0.662 | 0.53 | 0.546 | 0.296 | 1.19 | 1.09 | 1.02 | 1.14 | 0.541
NCI-H2342 | 0.443 | 0.574 | 0.622 | 0.737 | 0.401 | 0.429 | 0.608 | 0.354 | 0.715 | 0.611 | 0.683 | 0.768 | 0.547 | 1.14 | 0.95 | 1.05 | 0.83 | 0.648
NCI-H520 | 0.564 | 0.702 | 0.435 | 0.496 | 0.284 | 0.337 | 0.364 | 0.359 | 0.729 | 0.712 | 0.693 | 0.557 | 0.368 | 0.894 | 0.796 | 0.59 | 0.333 | 0.31
COR-L23 | 0.38 | 0.464 | 0.334 | 0.435 | 0.332 | 0.353 | 0.298 | 0.341 | 0.524 | 0.436 | 0.403 | 0.408 | 0.297 | 1.01 | 0.844 | 0.993 | 1.06 | 0.772
A549 | 0.163 | 0.154 |  | 0.146 | 0.315 | 0.323 | 0.186 | 0.249 |  |  |  |  |  | 1.14 | 1.04 | 1.01 | 0.84 | 0.465
H3255 | 0.3 |  | 0.342 | 0.332 | 0.497 |  | 0.519 | 0.556 | 0.729 | 0.935 | 0.693 | 0.795 | 0.652 | 0.772 | 1.03 | 0.811 | 0.865 | 0.481
NCI-H1993 | 0.532 |  | 0.595 | 0.468 | 0.976 |  | 1.26 | 1.12 | 0.86 | 0.967 | 0.717 | 0.474 | 0.449 | 0.749 | 0.633 | 0.549 | 0.487 | 0.575
NCI-H1792 | 0.228 | 0.236 | 0.115 | 0.336 | 0.404 | 0.45 |  | 0.441 |  |  |  |  |  |  |  |  |  | 
SW 1573 | 0.386 | 0.308 | 0.4 | 0.395 | 0.435 | 0.414 | 0.577 | 0.531 | 0.818 | 0.718 | 0.669 | 0.728 | 0.393 | 0.753 | 0.923 | 0.713 | 0.59 | 0.787
NCI-H2085 | 0.65 | 0.57 | 0.683 | 0.676 | 0.737 | 0.791 | 0.632 | 0.858 | 0.714 | 0.73 | 0.76 | 0.648 | 0.549 | 1.09 | 1.01 | 0.895 | 1.05 | 0.591
EBC-1 |  |  |  |  | 0.451 | 0.657 | 0.723 | 0.649 |  |  |  |  |  | 0.112 | 0.104 | 0.1 | 0.116 | 0.124
HCC-44 | 0.157 | 0.206 |  | 0.213 | 0.985 | 0.992 | 0.992 | 0.99 | 1.11 | 1.16 | 1.17 | 1.09 | 0.757 |  |  |  |  | 
NCI-H1563 | 0.632 | 0.705 | 0.66 | 0.672 |  |  |  |  |  |  |  |  |  | 0.937 | 0.857 | 0.909 | 0.839 | 0.854
Calu-6 |  |  |  |  |  | 0.593 | 0.549 | 0.471 |  |  |  |  |  | 0.989 | 0.936 | 0.837 | 0.784 | 0.593
NCI-H1648 |  |  |  |  |  | 0.434 | 0.927 | 0.761 | 0.369 | 0.323 |  | 0.477 | 0.236 |  |  |  |  | 
